# Source: patent US20070259945A1, “METHOD FOR TREATING PAIN” (ALLERGAN, INC., priority 2005, published 2007)
# Columns and labels:
# [1] = target: fatty acid amide hydrolase (FAAH) (Rattus norvegicus, UniProt P97612)
# [2] = system: nocifensive response to formalin; test: Formalin test, injection into the paw; assay type: in vivo; details: injected into the paw; counteracted by AM251 and occluded by capsazepine
# Text: (§1) The compounds of formula I are novel agents against […], acting by enhancing endocannabinoid levels (via FAAH inhibition) and at the same time by antagonizing TRPV1.
# [3] = system: nociceptive response to formalin injected into the rat paw; test: Formalin test, injection into the periaqueductal grey (PAG); assay type: in vivo
# Text: as §1
# [4] = system: anandamide levels; test: Anandamide levels in the PAG after intra-PAG injection; assay type: in vivo; details: rat, 4 μg/rat intra-PAG, measured 20 min following injection
# Text: as §1
# [5] = target: TRPV1 channels (Homo sapiens, UniProt Q8NER1); test: Blocking of TRPV1 channel activation by capsaicin; assay type: cell-based; details: capsaicin 100 nM; FIG. 1A; read-out: IC50 against capsaicin
# TRPV1 channels, sequence (Q8NER1 whole entry): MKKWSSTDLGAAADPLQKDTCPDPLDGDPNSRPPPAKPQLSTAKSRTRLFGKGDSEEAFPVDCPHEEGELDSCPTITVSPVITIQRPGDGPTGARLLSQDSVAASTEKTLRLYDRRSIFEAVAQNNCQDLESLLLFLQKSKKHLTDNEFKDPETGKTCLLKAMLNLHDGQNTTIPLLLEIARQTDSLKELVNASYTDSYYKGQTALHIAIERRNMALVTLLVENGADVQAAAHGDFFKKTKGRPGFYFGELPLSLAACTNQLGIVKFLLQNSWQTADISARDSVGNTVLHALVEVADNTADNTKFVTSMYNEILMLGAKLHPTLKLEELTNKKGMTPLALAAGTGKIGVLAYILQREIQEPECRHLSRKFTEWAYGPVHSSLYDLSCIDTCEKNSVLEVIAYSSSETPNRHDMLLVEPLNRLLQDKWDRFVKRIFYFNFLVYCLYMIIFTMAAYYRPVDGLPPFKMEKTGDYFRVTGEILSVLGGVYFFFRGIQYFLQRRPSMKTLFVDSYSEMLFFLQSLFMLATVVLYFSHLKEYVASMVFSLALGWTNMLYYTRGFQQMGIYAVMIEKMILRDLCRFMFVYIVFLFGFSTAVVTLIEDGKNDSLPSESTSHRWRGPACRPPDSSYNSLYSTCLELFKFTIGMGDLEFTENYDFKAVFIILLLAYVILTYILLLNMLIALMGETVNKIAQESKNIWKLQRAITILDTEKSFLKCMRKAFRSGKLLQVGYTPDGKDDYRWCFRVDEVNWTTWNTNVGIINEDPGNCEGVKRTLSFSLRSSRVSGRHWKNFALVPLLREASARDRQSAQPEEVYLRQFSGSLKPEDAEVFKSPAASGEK
# fatty acid amide hydrolase (FAAH), sequence (P97612 whole entry): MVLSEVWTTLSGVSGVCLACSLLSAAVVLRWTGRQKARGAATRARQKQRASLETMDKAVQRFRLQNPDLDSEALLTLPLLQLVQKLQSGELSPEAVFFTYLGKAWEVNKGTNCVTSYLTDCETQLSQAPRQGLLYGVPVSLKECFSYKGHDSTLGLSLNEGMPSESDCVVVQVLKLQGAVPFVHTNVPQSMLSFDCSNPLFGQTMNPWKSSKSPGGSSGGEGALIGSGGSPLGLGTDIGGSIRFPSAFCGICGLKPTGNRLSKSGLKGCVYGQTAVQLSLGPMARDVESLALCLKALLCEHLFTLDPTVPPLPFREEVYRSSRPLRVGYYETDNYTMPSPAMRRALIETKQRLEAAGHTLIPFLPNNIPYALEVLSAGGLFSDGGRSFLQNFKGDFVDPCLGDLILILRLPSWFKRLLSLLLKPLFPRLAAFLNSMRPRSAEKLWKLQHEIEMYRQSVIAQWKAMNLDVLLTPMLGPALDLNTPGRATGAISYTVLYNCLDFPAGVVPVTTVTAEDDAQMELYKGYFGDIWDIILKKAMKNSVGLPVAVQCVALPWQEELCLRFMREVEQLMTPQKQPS
structure (smiles),measurement,setting,value
"CCCCCC=CCC=CCC=CCC=CCCCC(=O)NCCc1c[nH]c2ccc(O)cc12 [AA-5-HT, N-arachidonoyl-serotonin]",type of FAAH inhibition,[1],mixed inhibitors
same,nocifensive response to formalin,[2],"selectively block the 2nd, inflammatory phase"
same,nociceptive response to formalin,[3]; 4 μg/rat injected directly into PAG,potently inhibits both phases
same,anti-hyperalgesic effect in presence of CB1 receptor antagonist AM251,"[3]; intra-PAG, with AM251 (nmol/rat)",counteracted
same,anti-hyperalgesic effect in presence of TRPV1 antagonist capsazepine,"[3]; intra-PAG, with capsazepine 6 nmol/rat",occluded
same,anandamide levels in the PAG,[4],elevated
same,IC50,[5],130 nM
